Data published in patent publication US10183032B2, “Methods for treating bacterial infection” (Ball State Innovation Corporation, priority 2012, dated 2019).

Tests used:
[1] = system: Staphylococcus aureus; test: Staphylococcus aureus host cell invasion assay in HUVEC, flow cytometry; assay type: cell-based
Procedure: In one embodiment, human umbilical vein endothelial cells (HUVEC, Life Technologies) are cultured in M200 medium supplemented with LSGS. RAW 264.7 cells (American Type Culture Collection, ATCC, Manassas, Va.) are cultured in RPMI supplemented with 10% FBS and L-glutamine. All cell types are maintained at 5% CO2, 37° C., in 75 cm^2 vented cap flasks (Thermo-Fisher). For assays, cultured cells are plated at 1×10^5 cells/ml in 35 mm culture dishes coated with Attachment Factor. The next day, cells are pretreated in culture medium containing the vehicle control or ML 141. For compound delivery, ML 141 first is suspended into DMSO or into PEG at a concentration of 5 mM. The 5 mM solution is diluted to 1 mM in the solvent and then diluted to the final concentration for each experiment in either serum-containing or serum-free medium. For vehicle control treatment, the same volume of PEG or DMSO as that of ML 141 is added to medium. The following day, the invasion assay is performed. For the shorter duration experiments, compound is added on the same day as the invasion assay, 1 hour prior to bacteria.
In another embodiment, HUVEC (Millipore, Billerica, Mass.) are cultured in EndoGRO LS Complete Media (Millipore) and are maintained at 5% CO2, 37° C., in 75 cm^2 vented cap flasks (Thermo-Fisher). For the invasion assay, cultured cells are plated at 1×10^4 cells/ml in 96-well culture dishes coated with Attachment Factor. The next day, cells are pretreated in culture medium containing the vehicle control, ML 141, or ML 141 structural analog. For compound delivery, ML 141 and structural analogs first are suspended into PEG at a concentration of 5 mM. The 5 mM solution is diluted to 1 mM in the solvent and then is diluted to the final concentration for each experiment in serum containing medium. For vehicle control treatment, the same volume of PEG as that of ML 141 or of ML 141 structural analog is added to the medium. The following day, the invasion assay is performed. Bacteria are added directly to medium containing vehicle control, ML 141, or the ML 141 structural analog.
Two days prior to the assay, TSB is inoculated with S. aureus (American Type Culture Collection #29213) and incubated overnight (225 rpm, 37° C.). Bacteria are subcultured the next day into fresh TSB. On the day of the assay, bacteria are pelleted (10000×g, 37° C., 3 min), are washed in saline, are pelleted as above, are resuspended in saline, then fluorescently labeled by incubation with rabbit anti-mouse IgG Alexa Fluor 488 (final concentration 8 μg/ml, RT, 20 min). Protein A, a S. aureus cell surface protein, avidly binds IgG thereby labeling the bacteria. Labeled bacteria are washed twice as above and are resuspended to 3×10^8 CFU/ml in saline. Host cells are incubated with the bacteria for 1 hour (1.2×10^8 CFU/ml for same-day recovery, 5×10^6 for recovery after 48 hours, 1.4×10^7 CFU/ml; 5% CO2, 37° C.). Following infection, extracellular bacteria are removed by extensive washes with PBS and incubation of the host cells with antimicrobials that have limited mammalian membrane permeability (lysostaphin, 20 μg/ml and gentamicin, 50 μg/ml; 45 min for same-day recovery studies, 48 hours for 2-day recovery studies; 5% CO2, 37° C.). To detect the level of infection using flow cytometry, cells that have been infected with fluorescently-labeled bacteria are washed extensively with PBS, lifted from 96-well plate by incubation with trypsin, washed extensively in FACS buffer (2% BSA/0.1% sodium azide/PBS), fixed (FACS buffer containing 0.74% formaldehyde), and are counted using an Accuri flow cytometer (BD, Franklin Lakes, N.J.). They are also lifted from culture dishes using cell scrapers, pelleted, fixed (1% BSA/0.74% formaldehyde/PBS), and are counted using an Accuri flow cytometer. For enumeration of the infecting bacteria, intracellular bacteria are released from host cells using 1% saponin/PBS (20 min, 5% CO2, 37° C.) and serial dilutions are plated on TSA (16 hours, 37° C.). […]

[2] = system: Human umbilical vein endothelial cells; test: Cytotoxicity assay (XTT), HUVEC; assay type: cell-based; details: HUVEC treated overnight, PEG solvent
Procedure: FIG. 6A illustrates that neither cytotoxicity nor bactericidal activity is detected. Human umbilical vein endothelial cells (HUVEC) were pretreated (18 hours) with the vehicle control polyethylene glycol (PEG) or with ML 141 and viability assessed using an XTT assay. The formazan dye produced in living cells was detectable at an absorbance wavelength of 490 nanometers and used as an indicator of cell viability. Absorbance values were not different amongst the groups (p>0.05 by one-way ANOVA; n=3/treatment).
HUVEC are plated at a density of 1.2×10^4 cells/ml into 96-well dishes coated with Attachment Factor. The next day, cells are pretreated with the vehicle control DMSO or with ML 141 (18 hours). An XTT-reducing assay is performed and absorbance read at 490 nanometers using a Bio-Rad plate reader.

[3] = system: β1 integrin subunit; test: β1 integrin surface expression in HUVEC, flow cytometry; assay type: cell-based, human; details: ML 141 10 μM versus DMSO
Procedure: FIG. 10B is a graph illustrating that expression of the […] integrin subunit remains substantially unchanged in HUVEC incubated with DMSO or ML 141 (10 μM). Pretreated HUVEC were stained with PE conjugated anti-β1 and examined using flow cytometry (no difference between groups was detected, t-test, p>0.05).
To examine β1 surface expression, recycling of the integrin was terminated (4° C., 15 min) and HUVEC lifted from plates using cell scrapers. After washing in FACS buffer (2% BSA/0.1% sodium azide/PBS), cells were incubated with PE-conjugated anti-β1 (BD; 30 min, on ice), washed, fixed in FACS buffer containing 4% paraformaldehyde, and analyzed using an Accuri C6 flow cytometer (BD).

COc1ccc(C2CC(c3ccccc3)=NN2c2ccc(S(N)(=O)=O)cc2)cc1 (stereo not shown) [ML 141, 4-[3-(4-methoxyphenyl)-5-phenyl-3,4-dihydropyrazol-2-yl]benzenesulfonamide]
decrease of invasion ([1]; ML 141 10.0 μM in PEG, 18 hours, HUVEC infected 1 hour): more than 80% | inhibition at 10 µM ([1]; Staphylococcus aureus, HUVEC, 18 h, read-out: inhibition of invasion): ~50% | Cytotoxicity (XTT, absorbance 490 nm) [2]: not detectable | expression of β1 integrin subunit [3]: no difference
